Like-named read-outs stand apart in the source and are kept apart here.
Tested on: HCT116 cells
Assay: ATPlite cell viability after drug treatment, HCT116 cells in cell-line or organoid culture media
Assay type: cell-based
Set-up: AUC 1st / AUC 2nd / AUC 3rd / AUC Average: unit not given here
Description: Advanced DMEM/F12+++ (hereinafter referred to as “Ad/DF+++”) was used to produce colorectal cancer organoids. Ad/DF+++ was refrigerated at 4° C. until use, and was used in a cold state during cell washing. Ad/DF+++ medium containing the reagents shown in Table 1 below along with Ad/DF 1× (Gibco) was prepared.
After preparing the Ad/DF+++ medium containing the above reagents, an appropriate amount of Matrigel (Corning #356231) was added so that the ratio between Matrigel and cells suspended in the Ad/DF+++ medium was 7:3. Then, the cells were plated on low attachment well plates at an appropriate density. The density and the type and number of well plates were determined according to the characteristics of each cell type. The medium was prepared according to the composition shown in Table 2 below, and the cells were cultured (expanded) until the required level was reached while the medium was replaced every 3 to 4 days.
If the organoids were expanded as needed for the experiment, the medium was carefully removed, taking care not to touch the Matrigel. The cells were separated from the Matrigel by pipetting about 20 times with 1 ml of cold Ad/DF+++. The cells in 1 to 4 wells per 6-well plate were collected in one 50 ml tube. If cells are collected from more than 4 wells into one tube, the Metrigel may not be washed properly. For this reason, the cells were placed in several tubes. Thereafter, Ad/DF+++ was poured to 20 to 50 ml of each tube, followed by centrifugation at 400 g for 3 minutes at 4° C. The cells were dissociated with 1 to 2 mL of TrypLE™ Express Enzyme (Gibco, 1264-013), transferred to low-attachment 24 well plates, and then treated with 10 μM of Y-27632. Next, the cells were cultured in a CO2 incubator for 5 minutes at 37° C. After pipetting about 20 times, whether the cells would be dissociated into single cells was checked by microscopic observation. If the cells were not dissociated into single cells, the culture under CO2 and pipetting processes were repeated. After the single cells were transferred into 15-ml tubes, Ad/DF+++ was filled to 10 to 15 ml of each tube, followed by centrifugation at 400 g at 4° C. for 3 minutes. After suspending the pellet in Ad/DF+++, the cells were counted and diluted with medium according to the required number of cells.
12 hours after seeding in Experimental Example 1-2 above, the medium was changed with the medium shown in Table 3 below, followed by culturing to produce organoids.
Four hours after the medium change, the cells were treated with oxaliplatin, 5-FU, Irinotecan, and folinic acid. Five days after drug treatment, intracellular ATP expression was determined using the ATPlite assay kit (PerkinElmer), and the data were expressed in terms of cell viability, IC50, and AUC.
As the standard for confirming that cells are sensitive to the drug, the response of the cells to the drug was assumed to be 100%, and the luminescence value of surviving cells after drug treatment was analyzed and compared with the quantified drug response value.
Based on the assumption that the factor that increases the resistance of the organoids to oxaliplatin is an activator or inhibitor that changes the phenotype, the organoids prepared by excluding some or all of activators and inhibitors as shown in Table 4 below were treated with oxaliplatin.
In order to identify the factors that reduce the resistance to oxaliplatin of the Ex2 organoid, activators or inhibitors that change the phenotype were added one by one to the Ex2 organoid composition, thus producing organoids as shown in Table 8 below. Then, it was checked whether the produced organoids had increased resistance to oxaliplatin.

## O=C1[O][Pt]2([NH][C@@H]3CCCC[C@H]3[NH]2)[O]C1=O [oxaliplatin]
HCT116, FIG. 3
  AUC value, Ex2 compared with Ex1: significantly lower AUC values than those of Ex1
  AUC value, Ex3 and Ex4 compared with Ex1: lower AUC values than Ex1
HCT116, FIG. 4
  IC50 value, Ex2 compared with Ex1: similarly lowered in Ex2 compared to Ex1
HCT116, McCoys control, Ex1, Ex2, FIG. 5
  cell viability versus oxaliplatin concentration: similarly lowered in the control (McCoys) HCT116 cells and the cells cultured under the organoid culture conditions of Ex2
HCT116 cell line in McCoys (control), 1st
  AUC 1st: 312.3
HCT116 cell line in McCoys (control), 1st, read-out: IC50 (μM) 1st
  IC50: 24.1 µM
HCT116 cell line in McCoys (control), 2nd
  AUC 2nd: 278.4
HCT116 cell line in McCoys (control), 2nd, read-out: IC50 (μM) 2nd
  IC50: 10.7 µM
HCT116 cell line in McCoys (control), 3rd
  AUC 3rd: 307.3
HCT116 cell line in McCoys (control), 3rd, read-out: IC50 (μM) 3rd
  IC50: 28.8 µM
HCT116 cell line in McCoys (control), average
  AUC Average: 299.3
HCT116 cell line in McCoys (control), average, read-out: IC50 (μM) Average
  IC50: 21.2 µM
HCT116 in Ex1 (all inhibitors and activators), 1st
  AUC 1st: 379.7
HCT116 in Ex1 (all inhibitors and activators), 1st, read-out: IC50 (μM) 1st
  IC50: 133 µM
HCT116 in Ex1, 2nd
  AUC 2nd: 379.9
HCT116 in Ex1, 2nd, read-out: IC50 (μM) 2nd
  IC50: 98 µM
HCT116 in Ex1, 3rd
  AUC 3rd: 390.0
HCT116 in Ex1, 3rd, read-out: IC50 (μM) 3rd
  IC50: 167 µM
HCT116 in Ex1, average
  AUC Average: 383.2
HCT116 in Ex1, average, read-out: IC50 (μM) Average
  IC50: 133 µM
HCT116 in Ex2 (no inhibitors, no activators), 1st
  AUC 1st: 319.8
HCT116 in Ex2 (no inhibitors, no activators), 1st, read-out: IC50 (μM) 1st
  IC50: 27.8 µM
HCT116 in Ex2-1 (Ex2 + A83-01 500 nM), 1st
  AUC 1st: 328.0
HCT116 in Ex2-1 (Ex2 + A83-01 500 nM), 1st, read-out: IC50 (μM) 1st
  IC50: 46 µM
HCT116 in Ex2-1, 2nd
  AUC 2nd: 341.6
HCT116 in Ex2-1, 2nd, read-out: IC50 (μM) 2nd
  IC50: 52.2 µM
HCT116 in Ex2-1, 3rd
  AUC 3rd: 342.0
HCT116 in Ex2-1, 3rd, read-out: IC50 (μM) 3rd
  IC50: 81.8 µM
HCT116 in Ex2-1, average
  AUC Average: 337.2
HCT116 in Ex2-1, average, read-out: IC50 (μM) Average
  IC50: 60 µM
HCT116 in Ex2-2 (Ex2 + Y-27632 10 μM), 1st
  AUC 1st: 284.9
HCT116 in Ex2-2 (Ex2 + Y-27632 10 μM), 1st, read-out: IC50 (μM) 1st
  IC50: 13 µM
HCT116 in Ex2-2, 2nd
  AUC 2nd: 320.5
HCT116 in Ex2-2, 2nd, read-out: IC50 (μM) 2nd
  IC50: 38.4 µM
HCT116 in Ex2-2, 3rd
  AUC 3rd: 301.0
HCT116 in Ex2-2, 3rd, read-out: IC50 (μM) 3rd
  IC50: 16 µM
HCT116 in Ex2-2, average
  AUC Average: 302.1
HCT116 in Ex2-2, average, read-out: IC50 (μM) Average
  IC50: 22.5 µM
HCT116 in Ex2-3 (Ex2 + SB 202190 10 μM), 1st
  AUC 1st: 306.6
HCT116 in Ex2-3 (Ex2 + SB 202190 10 μM), 1st, read-out: IC50 (μM) 1st
  IC50: 30.2 µM
HCT116 in Ex2-3, 2nd
  AUC 2nd: 343.3
HCT116 in Ex2-3, 2nd, read-out: IC50 (μM) 2nd
  IC50: 63.4 µM
HCT116 in Ex2-3, 3rd
  AUC 3rd: 287.0
HCT116 in Ex2-3, 3rd, read-out: IC50 (μM) 3rd
  IC50: 18.2 µM
HCT116 in Ex2-3, average
  AUC Average: 312.3
HCT116 in Ex2-3, average, read-out: IC50 (μM) Average
  IC50: 37.3 µM
HCT116 in Ex2-4 (Ex2 + Wnt3a), 1st
  AUC 1st: 258.2
HCT116 in Ex2-4 (Ex2 + Wnt3a), 1st, read-out: IC50 (μM) 1st
  IC50: 5.9 µM
HCT116 in Ex2-4, 2nd
  AUC 2nd: 304.7
HCT116 in Ex2-4, 2nd, read-out: IC50 (μM) 2nd
  IC50: 38.8 µM
HCT116 in Ex2-4, 3rd
  AUC 3rd: 315.9
HCT116 in Ex2-4, 3rd, read-out: IC50 (μM) 3rd
  IC50: 26.9 µM
HCT116 in Ex2-4, average
  AUC Average: 292.9
HCT116 in Ex2-4, average, read-out: IC50 (μM) Average
  IC50: 23.8 µM
HCT116 in Ex2-5 (Ex2 + R-spondin 1 1 μg/ml), 1st
  AUC 1st: 317.5
HCT116 in Ex2-5 (Ex2 + R-spondin 1 1 μg/ml), 1st, read-out: IC50 (μM) 1st
  IC50: 34 µM
HCT116 in Ex2-5, 2nd
  AUC 2nd: 322.7
HCT116 in Ex2-5, 2nd, read-out: IC50 (μM) 2nd
  IC50: 43 µM
HCT116 in Ex2-5, 3rd
  AUC 3rd: 351.6
HCT116 in Ex2-5, 3rd, read-out: IC50 (μM) 3rd
  IC50: 103 µM
HCT116 in Ex2-5, average
  AUC Average: 330.6
HCT116 in Ex2-5, average, read-out: IC50 (μM) Average
  IC50: 60 µM
HCT116 in Ex2-6 (Ex2 + Noggin 100 ng/ml), 1st
  AUC 1st: 264.3
HCT116 in Ex2-6 (Ex2 + Noggin 100 ng/ml), 1st, read-out: IC50 (μM) 1st
  IC50: 7.8 µM
HCT116 in Ex2-6, 2nd
  AUC 2nd: 309.4
HCT116 in Ex2-6, 2nd, read-out: IC50 (μM) 2nd
  IC50: 41.4 µM
HCT116 in Ex2-6, 3rd
  AUC 3rd: 292.6
HCT116 in Ex2-6, 3rd, read-out: IC50 (μM) 3rd
  IC50: 22.1 µM
HCT116 in Ex2-6, average
  AUC Average: 288.8
HCT116 in Ex2-6, average, read-out: IC50 (μM) Average
  IC50: 23.8 µM
HCT116 in Ex2, 2nd
  AUC 2nd: 324.8
HCT116 in Ex2, 2nd, read-out: IC50 (μM) 2nd
  IC50: 46.1 µM
HCT116 in Ex2, 3rd
  AUC 3rd: 331.7
HCT116 in Ex2, 3rd, read-out: IC50 (μM) 3rd
  IC50: 40.5 µM
HCT116 in Ex2, average
  AUC Average: 325.4
HCT116 in Ex2, average, read-out: IC50 (μM) Average
  IC50: 38.1 µM
HCT-116, FIG. 2
  drug response, colorectal cancer cell line compared with cells under Ex1 organoid culture conditions: increased resistance under the organoid culture conditions
HCT-116, FIG. 25
  drug responsiveness, colorectal cancer cell line compared with organoids cultured in Ex1 and Ex2: oxaliplatin resistance decreased in Ex2
